The record followed here is publication PMC5054527, “Mechanism of high affinity inhibition of the human urate transporter URAT1” (Scientific Reports, 2016).

Substitutions are numbered along the chain they refer to. Like-named read-outs stand apart in the source and are kept apart here.

Assay in all cases: URAT1 uric acid transport activity assay
Holding throughout (assay type): cell-based

Experiment [1] has as its target T1, r-N35S/Y365F/M481I rURAT1 triple point mutant (Rattus norvegicus, UniProt Q3ZAV1, M481I/N35S/Y365F).
T1 construct: hURAT1 and rURAT1 are 553 amino acid proteins with 12 transmembrane segments; expressed in transfected cells; host or cells: HEK-293T
T1 sequence (Q3ZAV1 1-553 N35S/Y365F/M481I): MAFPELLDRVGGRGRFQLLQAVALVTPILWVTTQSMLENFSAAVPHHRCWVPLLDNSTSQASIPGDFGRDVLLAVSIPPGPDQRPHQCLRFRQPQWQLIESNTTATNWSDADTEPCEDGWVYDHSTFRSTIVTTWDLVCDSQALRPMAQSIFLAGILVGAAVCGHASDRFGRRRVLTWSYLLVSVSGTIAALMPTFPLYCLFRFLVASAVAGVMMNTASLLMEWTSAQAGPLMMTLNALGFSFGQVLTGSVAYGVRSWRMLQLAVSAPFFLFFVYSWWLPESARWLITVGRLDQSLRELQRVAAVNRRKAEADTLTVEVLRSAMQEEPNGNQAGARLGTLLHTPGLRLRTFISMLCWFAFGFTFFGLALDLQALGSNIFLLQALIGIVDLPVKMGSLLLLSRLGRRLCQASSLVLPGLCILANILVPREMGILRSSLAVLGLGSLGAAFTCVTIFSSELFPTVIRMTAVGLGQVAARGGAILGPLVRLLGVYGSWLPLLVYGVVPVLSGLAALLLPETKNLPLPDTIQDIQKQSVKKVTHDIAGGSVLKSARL
The source says:
(§1) hURAT1 (GenBank BC053348.1) and rURAT1 (NCBI NM_001034943.1) genes were purchased from Origene Technologies, Inc. and subcloned into pCMV6/neo using NotI, creating pCMV6/neo-hURAT1 and pCMV6/neo-rURAT1. Mutants were produced by polymerase chain reaction (PCR) or site-directed mutagenesis using the QuikChange Lightning Multi Site-Directed Mutagenesis Kit (Agilent Technologies). […] Detailed methods are provided in Supplementary Methods, and primers are listed in Supplementary Table 1. […] Residues in rURAT1 and hOAT1 that correspond to the residues in hURAT1 were identified from aligned protein sequences (Supplementary Fig. 1)[50].
(§2) DNA (10 μg) was mixed with 30 μl of DreamFect Gold (Boca Scientific) in 2 ml OptiMem (Life Technologies). After 20 minutes, 18 ml of media containing 2 × 10^7 cells in suspension was added and mixed, and 200 μl per well were plated onto white clear-bottomed poly-D-lysine coated 96-well plates (BD Biosciences). The cells were assayed the following day.
(§3) Compounds were serially diluted into assay buffer and added to the cells for 5 minutes prior to addition of radiolabelled uric acid substrate. URAT1-expressing cells were incubated with 100 μM ^14C-uric acid for 10 minutes. […] Each treatment was measured in triplicate.
(§4) Unlabelled uric acid was prepared at a 20 mM stock just prior to use in a solution containing 20 mM dibasic potassium phosphate and 20 mM potassium hydroxide.
(§5) Nonlinear regression analyses using GraphPad Prism software were used to calculate the potency of URAT1 inhibitors (IC50 values) from log (inhibitor) versus response - variable slope (four parameters) equations. Statistical significance was assessed using Student’s unpaired t-tests.

Experiment [2] concerns the target T2, r-N35S/M481I rURAT1 double point mutant (Rattus norvegicus, UniProt Q3ZAV1, M481I/N35S).
T2 construct: hURAT1 and rURAT1 are 553 amino acid proteins with 12 transmembrane segments; expressed in transfected cells; host or cells: HEK-293T
T2 sequence (Q3ZAV1 1-553 N35S/M481I): T1 sequence (Q3ZAV1 1-553 N35S/Y365F/M481I) with F365Y
Excerpt: as §1, §2, §3, §4, §5

Experiment [3] has as its target T3, r-T26V rURAT1 point mutant (Rattus norvegicus, UniProt Q3ZAV1, T26V).
T3 sequence (Q3ZAV1 1-553 T26V): T1 sequence (Q3ZAV1 1-553 N35S/Y365F/M481I) with T26V, S35N, F365Y, I481M
Excerpt: as §1, §2, §3, §4, §5

As for `CCc1oc2ccccc2c1C(=O)c1cc(Br)c(O)c(Br)c1` [benzbromarone], the concentration for half-maximal inhibition (IC50) in experiment [1] worked out at 0.61 ± 0.04 µM; in experiment [2] it was 9 ± 1.5 µM; in experiment [3] it was 26 ± 4.4 µM.

For the molecule `O=C(O)CSc1nnc(Br)n1-c1ccc(C2CC2)c2ccccc12` [lesinurad, 2-((5-bromo-4-(4-cyclopropylnaphthalen-1-yl)-4H-1,2,4-triazol-3-yl)thio)acetic acid], the IC50 was 1.2 ± 0.14 µM in experiment [1] (r-N35S/Y365F/M481I, MES pH 5.5, 100 μM 14C-uric acid, read-out: IC50 (uric acid transport)); 29 ± 1.2 µM in experiment [2] (r-N35S/M481I, MES pH 5.5, 100 μM 14C-uric acid, read-out: IC50 (uric acid transport)); 76 ± 2.3 µM in experiment [3] (r-T26V, MES pH 5.5, 100 μM 14C-uric acid, read-out: IC50 (uric acid transport)).

For the molecule `O=C1C(CC[S+]([O-])c2ccccc2)C(=O)N(c2ccccc2)N1c1ccccc1` (stereo not drawn) [sulfinpyrazone], the IC50 in experiment [1] (r-N35S/Y365F/M481I, HEPES pH 7.3, 100 μM 14C-uric acid, read-out: IC50 (uric acid transport)) worked out at 49 ± 2.2 µM; in experiment [2] (r-N35S/M481I, HEPES pH 7.3, 100 μM 14C-uric acid, read-out: IC50 (uric acid transport)), 176 ± 44 µM; in experiment [3] (r-T26V, HEPES pH 7.3, 100 μM 14C-uric acid, read-out: IC50 (uric acid transport)) it was 655 ± 191 µM.

In general, IC50 refers to the midpoint of a concentration-inhibition curve.
